DBAASP
Values after ≈ are worked out from the molar mass of the structure shown. Blank lines part the entries; values can stand above or below the compound they belong to.

Columns and labels:
Assay in all cases: ≥ marks a high value that may be exact or a test limit, other limits are often not marked, values filed in µg/mL are converted to µM
[1] = test system: Streptococcus pyogenes M1T1 5448
Escherichia coli BL21 = test system: Escherichia coli BL21
[2] = test system: Pseudomonas aeruginosa PAO1
[3] = test system: Staphylococcus aureus USA 300
[4] = test system: Staphylococcus aureus ATCC 25923
[5] = test system: Escherichia coli ATCC 25922
[6] = test system: Cryptococcus neoformans B3501
[7] = test system: Candida albicans ATCC 90028
[8] = test system: Klebsiella pneumoniae ATCC 13833
[9] = test system: Pseudomonas aeruginosa ATCC 27853
Escherichia coli C600 = test system: Escherichia coli C600
[10] = test system: Staphylococcus aureus 209P
Staphylococcus aureus = test system: Staphylococcus aureus
Pasteurella multocida = test system: Pasteurella multocida
[11] = test system: Mannheimia haemolytica Serovar 2
Klebsiella pneumoniae = test system: Klebsiella pneumoniae
Bibersteinia trehalosi = test system: Bibersteinia trehalosi
Aspergillus fumigatus = test system: Aspergillus fumigatus
[12] = test system: Corynebacterium pseudotuberculosis ATCC 19410
[13] = test system: Mannheimia haemolytica Serovar 1
[14] = test system: Salmonella enterica subsp. arizonae
[15] = test system: Mannheimia haemolytica Serovar 6
Serratia marcescens = test system: Serratia marcescens
[16] = test system: Micrococcus luteus ATCC 4698
Escherichia coli = test system: Escherichia coli
[17] = test system: Klebsiella pneumoniae ATCC 10031
[18] = test system: Pseudomonas aeruginosa ATCC 9027
[19] = test system: Shigella dysenteriae ATCC 9752
[20] = test system: Bacillus subtilis KCTC 1021
[21] = test system: Salmonella enterica subsp. enterica serovar Typhimurium ATCC 14028

Structure (SMILES): CC[C@H](C)[C@H](NC(=O)[C@H](CCCN=C(N)N)NC(=O)CNC(=O)[C@@H](NC(=O)[C@H](CCCCN)NC(=O)[C@H](CCCN=C(N)N)NC(=O)[C@@H](NC(=O)[C@H](Cc1ccc(O)cc1)NC(=O)[C@H](CCCN=C(N)N)NC(=O)[C@H](CCCN=C(N)N)NC(=O)[C@H](CC(C)C)NC(=O)[C@H](CCC(=O)O)NC(=O)[C@H](CCCCN)NC(=O)[C@H](C)NC(=O)[C@@H](NC(=O)[C@H](CCCN=C(N)N)NC(=O)[C@H](CC(N)=O)NC(=O)[C@@H](NC(=O)CNC(=O)[C@H](C)N)[C@@H](C)O)[C@@H](C)CC)[C@@H](C)CC)C(C)C)C(=O)N[C@@H](C)C(=O)N[C@@H](CCCN=C(N)N)C(=O)N[C@@H](CCCCN)C(=O)N[C@@H](Cc1c[nH]c2ccccc12)C(=O)N[C@@H](Cc1c[nH]c2ccccc12)C(=O)O [AGTNRIAKELRRYIRKVGRIARKWW]
- MIC [1]: 1 µM (≈ 3.1 µg/mL)
- MIC (Escherichia coli BL21): 0.25 µM (≈ 0.775 µg/mL)
- MIC [2]: 8 µM (≈ 24.8 µg/mL)

Structure (SMILES): CC[C@H](C)[C@H](NC(=O)[C@H](CCCN=C(N)N)NC(=O)CNC(=O)[C@@H](NC(=O)[C@H](CCCCN)NC(=O)[C@H](CCCN=C(N)N)NC(=O)[C@@H](NC(=O)[C@H](Cc1ccc(O)cc1)NC(=O)[C@H](CCCN=C(N)N)NC(=O)[C@H](CCCN=C(N)N)NC(=O)[C@H](CC(C)C)NC(=O)[C@H](CCC(=O)O)NC(=O)[C@H](CCCCN)NC(=O)[C@H](C)NC(=O)[C@@H](NC(=O)[C@H](CCCN=C(N)N)NC(=O)[C@H](CC(N)=O)NC(=O)[C@@H](NC(=O)CNC(=O)[C@@H](N)Cc1c[nH]c2ccccc12)[C@@H](C)O)[C@@H](C)CC)[C@@H](C)CC)C(C)C)C(=O)N[C@@H](C)C(=O)N[C@@H](CCCN=C(N)N)C(=O)N[C@@H](CCCCN)C(=O)N[C@@H](C)C(=O)N[C@@H](Cc1c[nH]c2ccccc12)C(=O)O [WGTNRIAKELRRYIRKVGRIARKAW]
- MIC [1]: 0.25 µM (≈ 0.775 µg/mL)
- MIC [3]: 16 µM (≈ 49.6 µg/mL)
- MIC (Escherichia coli BL21): 1 µM (≈ 3.1 µg/mL)
- MIC [2]: 8 µM (≈ 24.8 µg/mL)

Structure (SMILES): CC[C@H](C)[C@@H]1NC(=O)CNC(=O)[C@H](CCCN=C(N)N)NC(=O)[C@H](CCCN=C(N)N)NC(=O)[C@@H]2CSSC[C@H](NC1=O)C(=O)N[C@@H](Cc1ccc(O)cc1)C(=O)N[C@@H](CCCN=C(N)N)C(=O)N[C@@H](CCCN=C(N)N)C(=O)N[C@H](C(=O)N[C@@H](CCCN=C(N)N)C(=O)O)CSSC[C@H](NC(=O)[C@H](Cc1c[nH]c3ccccc13)NC(=O)[C@@H](N)CCCCN)C(=O)N[C@@H](Cc1ccccc1)C(=O)N[C@@H](CCCN=C(N)N)C(=O)N[C@@H](C(C)C)C(=O)N2 [KWCFRVCRRGICYRRCR]
- MIC (Escherichia coli C600): 1.56 µM (≈ 3.52 µg/mL)
- MIC [10]: 3.13 µM (≈ 7.07 µg/mL)
- MIC [2]: 6.25 µM (≈ 14.1 µg/mL)

Structure (SMILES): CC[C@H](C)[C@H](NC(=O)CN)C(=O)N[C@@H](CC(C)C)C(=O)N[C@@H](CC(=O)O)C(=O)N[C@H](C(=O)N[C@@H](CC(C)C)C(=O)N[C@@H](CCCCN)C(=O)N[C@@H](CCC(N)=O)C(=O)N[C@@H](Cc1ccccc1)C(=O)N[C@@H](C)C(=O)N[C@@H](CCCCN)C(=O)NCC(=O)N[C@H](C(=O)NCC(=O)N[C@@H](CCCCN)C(=O)N[C@@H](CC(=O)O)C(=O)N[C@@H](CC(C)C)C(=O)N[C@H](C(=O)N[C@@H](CCCCN)C(=O)NCC(=O)N[C@@H](C)C(=O)N[C@@H](C)C(=O)N[C@@H](CCC(N)=O)C(=O)O)C(C)C)C(C)C)[C@@H](C)O [GILDTLKQFAKGVGKDLVKGAAQ]
- MIC (Serratia marcescens): ≥ 84.8 µM
- MIC [16]: ≥ 84.8 µM
- MIC (Escherichia coli): > 84.8 µM
- MIC [17]: ≥ 84.8 µM
- MIC [18]: > 84.8 µM
- MIC [19]: ≥ 84.8 µM
- MIC [20]: ≥ 84.8 µM
- MIC [21]: > 84.8 µM

Structure (SMILES): CC[C@H](C)[C@H](NC(=O)[C@H](Cc1cnc[nH]1)NC(=O)[C@@H](NC(=O)[C@@H](NC(=O)[C@H](CCCCN)NC(=O)[C@H](CCCN=C(N)N)NC(=O)[C@@H](NC(=O)[C@@H](NC(=O)[C@H](CCCN=C(N)N)NC(=O)[C@@H](N)CCCN=C(N)N)[C@@H](C)CC)[C@@H](C)CC)[C@@H](C)CC)[C@@H](C)CC)C(=O)N[C@H](C(=O)N[C@@H](CCCCN)C(N)=O)[C@@H](C)CC [RRIIRKIIHIIK]
- MIC (Staphylococcus aureus): > 12.8 µM
- MIC (Pasteurella multocida): 12.8 µM (≈ 20 µg/mL)
- MIC [11]: 6.67 µM (≈ 10.4 µg/mL)
- MIC [2]: 1.09 µM (≈ 1.7 µg/mL)
- MIC (Klebsiella pneumoniae): > 12.8 µM
- MIC (Bibersteinia trehalosi): 12.8 µM (≈ 20 µg/mL)
- MIC (Aspergillus fumigatus): 17.1 µM (≈ 26.7 µg/mL)
- MIC [12]: 12.8 µM (≈ 20 µg/mL)
- MIC [13]: 12.8 µM (≈ 20 µg/mL)
- MIC [14]: 12.8 µM (≈ 20 µg/mL)
- MIC [15]: 4.3 µM (≈ 6.7 µg/mL)

Structure (SMILES): CC[C@H](C)[C@@H]1NC(=O)CNC(=O)[C@H](CCCN=C(N)N)NC(=O)[C@H](CO)NC(=O)[C@@H]2CSSC[C@H](NC1=O)C(=O)N[C@@H](Cc1ccc(O)cc1)C(=O)N[C@@H](CCCN=C(N)N)C(=O)N[C@@H](CCCN=C(N)N)C(=O)N[C@H](C(=O)N[C@@H](CCCN=C(N)N)C(=O)O)CSSC[C@H](NC(=O)[C@H](Cc1c[nH]c3ccccc13)NC(=O)[C@@H](N)CCCCN)C(=O)N[C@@H](Cc1ccccc1)C(=O)N[C@@H](CCCN=C(N)N)C(=O)N[C@@H](C(C)C)C(=O)N2 [KWCFRVCSRGICYRRCR]
- MIC (Escherichia coli C600): 0.8 µM (≈ 1.75 µg/mL)
- MIC [10]: 3.13 µM (≈ 6.85 µg/mL)
- MIC [2]: 3.13 µM (≈ 6.85 µg/mL)

Now from value to compound, other results behind:

- MIC [4]: 8 µM (≈ 16.5 µg/mL)
- MIC [5]: 8 µM (≈ 16.5 µg/mL)
- MIC [6]: 4 µM (≈ 8.24 µg/mL)
- MIC [7]: 16 µM (≈ 33 µg/mL)
- MIC [8]: 8 µM (≈ 16.5 µg/mL)
- MIC [9]: 16 µM (≈ 33 µg/mL)
Structure (SMILES): CC[C@H](C)[C@H](NC(=O)[C@H](CCCN=C(N)N)NC(=O)[C@H](CC(N)=O)NC(=O)[C@H](Cc1ccccc1)NC(=O)[C@H](CC(C)C)NC(=O)CNC(=O)[C@H](CCSC)NC(=O)[C@@H](N)CC(C)C)C(=O)N[C@H](C(=O)N[C@@H](CCCN=C(N)N)C(=O)N[C@@H](CCCCN)C(=O)N[C@H](C(=O)N[C@H](C(=O)N[C@@H](CCCCN)C(=O)N[C@@H](CC(C)C)C(=O)N[C@@H](Cc1ccccc1)C(=O)N[C@@H](CC(N)=O)C(N)=O)C(C)C)C(C)C)[C@@H](C)CC [LMGLFNRIIRKVVKLFN]

- MIC (Staphylococcus aureus): 4.81 µM (≈ 10 µg/mL)
- MIC (Pasteurella multocida): 1.01 µM (≈ 2.1 µg/mL)
- MIC [2]: 1.2 µM (≈ 2.5 µg/mL)
- MIC (Klebsiella pneumoniae): 0.626 µM (≈ 1.3 µg/mL)
- MIC (Bibersteinia trehalosi): 1.01 µM (≈ 2.1 µg/mL)
- MIC (Aspergillus fumigatus): 6.4 µM (≈ 13.3 µg/mL)
- MIC [12]: 9.63 µM (≈ 20 µg/mL)
- MIC [14]: 2.41 µM (≈ 5 µg/mL)
Structure (SMILES): CC[C@H](C)[C@H](NC(=O)[C@H](CCCN=C(N)N)NC(=O)[C@H](CCCN=C(N)N)NC(=O)[C@H](CC(C)C)NC(=O)[C@@H](N)CC(N)=O)C(=O)N[C@H](C(=O)N[C@@H](CCCN=C(N)N)C(=O)N[C@@H](CCCCN)C(=O)N[C@H](C(=O)N[C@H](C(=O)N[C@@H](Cc1cnc[nH]1)C(=O)N[C@H](C(=O)N[C@H](C(=O)N[C@@H](CCCCN)C(=O)N[C@@H](CCCCN)C(=O)N[C@@H](Cc1ccc(O)cc1)C(=O)O)[C@@H](C)CC)[C@@H](C)CC)[C@@H](C)CC)[C@@H](C)CC)[C@@H](C)CC [NLRRIIRKIIHIIKKY]
- MIC [11]: 2.41 µM (≈ 5 µg/mL)
- MIC [13]: 0.626 µM (≈ 1.3 µg/mL)
- MIC [15]: 1.2 µM (≈ 2.5 µg/mL)

- MIC [4]: 4 µM (≈ 9.82 µg/mL)
- MIC [5]: 4 µM (≈ 9.82 µg/mL)
- MIC [6]: 2 µM (≈ 4.91 µg/mL)
- MIC [7]: 8 µM (≈ 19.6 µg/mL)
- MIC [8]: 4 µM (≈ 9.82 µg/mL)
- MIC [9]: 8 µM (≈ 19.6 µg/mL)
Structure (SMILES): CC[C@H](C)[C@H](NC(=O)[C@H](Cc1cnc[nH]1)NC(=O)[C@H](C)NC(=O)[C@H](Cc1ccc(O)cc1)NC(=O)[C@@H](NC(=O)[C@H](CCCN=C(N)N)NC(=O)[C@H](Cc1ccccc1)NC(=O)[C@H](CC(C)C)NC(=O)[C@H](CCCN=C(N)N)NC(=O)[C@H](CCCCN)NC(=O)[C@H](CC(C)C)NC(=O)[C@@H](NC(=O)[C@@H](NC(=O)[C@H](CCCCN)NC(=O)[C@H](C)NC(=O)[C@@H](NC(=O)[C@H](CO)NC(=O)[C@H](CCSC)NC(=O)[C@@H](N)Cc1ccccc1)C(C)C)[C@@H](C)O)[C@@H](C)CC)C(C)C)C(=O)N[C@@H](Cc1ccc(O)cc1)C(N)=O [FMSVAKTILKRLFRVYAHIY]
